Assay results: the NIST ThermoML archive (doi:10.1016/j.jct.2010.09.003)

Columns and labels:
[1] = Ring tensiometer
[2] = xn = mol fraction of the nth substance listed; settings: Ring tensiometer

OCCO [1,2-ethanediol]
[1]
Settings | surface tension liquid-gas [mN/m]
283.15 K | 49.27
298.15 K | 48.22
308.15 K | 47.29

OCCO [1,2-ethanediol] + CC#N
[2]
Settings | surface tension liquid-gas [mN/m]
283.15 K, x2 = 0.0102 | 47.92
283.15 K, x2 = 0.0202 | 46.5
283.15 K, x2 = 0.0349 | 44.85
283.15 K, x2 = 0.0488 | 41.85
283.15 K, x2 = 0.0611 | 41.1
283.15 K, x2 = 0.0851 | 39
283.15 K, x2 = 0.0936 | 38.18
283.15 K, x2 = 0.102 | 36.99
283.15 K, x2 = 0.1141 | 36.8
283.15 K, x2 = 0.126 | 35.72
283.15 K, x2 = 0.1413 | 34
283.15 K, x2 = 0.1561 | 33.22
283.15 K, x2 = 0.1765 | 32.67
283.15 K, x2 = 0.1902 | 32.45
283.15 K, x2 = 0.2426 | 32.01
283.15 K, x2 = 0.29 | 31.75
283.15 K, x2 = 0.3379 | 31.68
283.15 K, x2 = 0.3895 | 31.49
283.15 K, x2 = 0.4202 | 31.44
283.15 K, x2 = 0.5197 | 31.05
283.15 K, x2 = 0.7564 | 30.55
283.15 K, x2 = 0.9008 | 30.01
298.15 K, x2 = 0.0109 | 47.82
298.15 K, x2 = 0.0199 | 47.46
298.15 K, x2 = 0.0361 | 46.85
298.15 K, x2 = 0.072 | 45.45
298.15 K, x2 = 0.0845 | 44.97
298.15 K, x2 = 0.1012 | 44.23
298.15 K, x2 = 0.1402 | 42.7
298.15 K, x2 = 0.1599 | 40.49
298.15 K, x2 = 0.1992 | 40.13
298.15 K, x2 = 0.2569 | 37.76
298.15 K, x2 = 0.2999 | 36.35
298.15 K, x2 = 0.35 | 34.9
298.15 K, x2 = 0.4345 | 33
298.15 K, x2 = 0.4888 | 32.25
298.15 K, x2 = 0.5699 | 31.53
298.15 K, x2 = 0.6321 | 31.01
298.15 K, x2 = 0.7099 | 30.49
298.15 K, x2 = 0.7765 | 30.17
298.15 K, x2 = 0.8499 | 29.71
308.15 K, x2 = 0.0202 | 46.45
308.15 K, x2 = 0.0349 | 45.63
308.15 K, x2 = 0.0674 | 43.75
308.15 K, x2 = 0.0851 | 42.8
308.15 K, x2 = 0.1021 | 41.75
308.15 K, x2 = 0.1568 | 39.26
308.15 K, x2 = 0.1852 | 37.85
308.15 K, x2 = 0.1987 | 37.18
308.15 K, x2 = 0.2426 | 35.5
308.15 K, x2 = 0.2976 | 34.05
308.15 K, x2 = 0.4144 | 31.64
308.15 K, x2 = 0.4734 | 30.85
308.15 K, x2 = 0.5101 | 30.41
308.15 K, x2 = 0.6453 | 28.95
308.15 K, x2 = 0.7654 | 28.53
308.15 K, x2 = 0.9352 | 27.83

OCCO [1,2-ethanediol] + O
[2]
Settings | surface tension liquid-gas [mN/m]
283.15 K, x1 = 0.0078 | 73.5
283.15 K, x1 = 0.0132 | 72.59
283.15 K, x1 = 0.0216 | 71.19
283.15 K, x1 = 0.0334 | 69.9
283.15 K, x1 = 0.0498 | 68.63
283.15 K, x1 = 0.0632 | 67.15
283.15 K, x1 = 0.0875 | 64.99
283.15 K, x1 = 0.1152 | 63.9
283.15 K, x1 = 0.1436 | 62.16
283.15 K, x1 = 0.1635 | 60.8
283.15 K, x1 = 0.2002 | 59.26
283.15 K, x1 = 0.2509 | 57.72
283.15 K, x1 = 0.2895 | 56.46
283.15 K, x1 = 0.4112 | 54.53
283.15 K, x1 = 0.4753 | 53.16
283.15 K, x1 = 0.6668 | 51.62
283.15 K, x1 = 0.7562 | 50.82
283.15 K, x1 = 0.8958 | 49.84
298.15 K, x1 = 0.0083 | 71.18
298.15 K, x1 = 0.0144 | 70.41
298.15 K, x1 = 0.0246 | 69.25
298.15 K, x1 = 0.0351 | 68.12
298.15 K, x1 = 0.0466 | 66.95
298.15 K, x1 = 0.0556 | 66.14
298.15 K, x1 = 0.0899 | 63.74
298.15 K, x1 = 0.1042 | 62.68
298.15 K, x1 = 0.1342 | 61.16
298.15 K, x1 = 0.1624 | 59.99
298.15 K, x1 = 0.1989 | 58.5
298.15 K, x1 = 0.2499 | 56.89
298.15 K, x1 = 0.2996 | 55.65
298.15 K, x1 = 0.401 | 53.63
298.15 K, x1 = 0.4999 | 52.22
298.15 K, x1 = 0.65 | 50.65
298.15 K, x1 = 0.75 | 49.82
298.15 K, x1 = 0.8987 | 48.68
308.15 K, x1 = 0.008 | 69.14
308.15 K, x1 = 0.0141 | 68.26
308.15 K, x1 = 0.0253 | 66.81
308.15 K, x1 = 0.0353 | 65.67
308.15 K, x1 = 0.0511 | 64.1
308.15 K, x1 = 0.0556 | 63.7
308.15 K, x1 = 0.0905 | 61.09
308.15 K, x1 = 0.1113 | 59.86
308.15 K, x1 = 0.1445 | 58.26
308.15 K, x1 = 0.1602 | 57.62
308.15 K, x1 = 0.2132 | 55.84
308.15 K, x1 = 0.2485 | 54.9
308.15 K, x1 = 0.3201 | 53.39
308.15 K, x1 = 0.4126 | 51.95
308.15 K, x1 = 0.5054 | 50.84
308.15 K, x1 = 0.6501 | 49.52
308.15 K, x1 = 0.7406 | 48.84
308.15 K, x1 = 0.8875 | 47.91

CC#N [acetonitrile]
[1]
Settings | surface tension liquid-gas [mN/m]
283.15 K | 29.73
298.15 K | 28.2
308.15 K | 27.47

CC#N [acetonitrile] + O
[2]
Settings | surface tension liquid-gas [mN/m]
283.15 K, x1 = 0.0051 | 70.6
283.15 K, x1 = 0.0101 | 67.18
283.15 K, x1 = 0.0151 | 64.36
283.15 K, x1 = 0.0217 | 61.23
283.15 K, x1 = 0.0298 | 57.99
283.15 K, x1 = 0.0377 | 55.36
283.15 K, x1 = 0.0486 | 52.34
283.15 K, x1 = 0.0593 | 49.47
283.15 K, x1 = 0.0871 | 44.54
283.15 K, x1 = 0.1011 | 42.3
283.15 K, x1 = 0.1431 | 38.03
283.15 K, x1 = 0.1615 | 35.51
283.15 K, x1 = 0.1847 | 34.35
283.15 K, x1 = 0.2068 | 33.9
283.15 K, x1 = 0.2327 | 33.51
283.15 K, x1 = 0.3098 | 32.89
283.15 K, x1 = 0.3971 | 32.56
283.15 K, x1 = 0.4878 | 32.29
283.15 K, x1 = 0.6557 | 32.06
283.15 K, x1 = 0.8056 | 31.26
283.15 K, x1 = 0.9592 | 29.83
298.15 K, x1 = 0.0149 | 62.36
298.15 K, x1 = 0.0298 | 55.92
298.15 K, x1 = 0.0516 | 49.39
298.15 K, x1 = 0.0653 | 45.96
298.15 K, x1 = 0.086 | 42.2
298.15 K, x1 = 0.095 | 40.54
298.15 K, x1 = 0.1023 | 39.63
298.15 K, x1 = 0.1227 | 37.97
298.15 K, x1 = 0.1403 | 36.42
298.15 K, x1 = 0.157 | 35.68
298.15 K, x1 = 0.1855 | 33.97
298.15 K, x1 = 0.195 | 34.11
298.15 K, x1 = 0.2541 | 32.92
298.15 K, x1 = 0.3256 | 32.34
298.15 K, x1 = 0.3959 | 31.68
298.15 K, x1 = 0.4851 | 31.45
298.15 K, x1 = 0.5913 | 30.95
298.15 K, x1 = 0.693 | 30.37
298.15 K, x1 = 0.7968 | 29.46
308.15 K, x1 = 0.0217 | 60.53
308.15 K, x1 = 0.0298 | 59
308.15 K, x1 = 0.0377 | 55.56
308.15 K, x1 = 0.0727 | 48.05
308.15 K, x1 = 0.0871 | 45.83
308.15 K, x1 = 0.1304 | 40.09
308.15 K, x1 = 0.1431 | 38.79
308.15 K, x1 = 0.1615 | 36.94
308.15 K, x1 = 0.1847 | 35.7
308.15 K, x1 = 0.2068 | 33.9
308.15 K, x1 = 0.2327 | 33.51
308.15 K, x1 = 0.3098 | 31.04
308.15 K, x1 = 0.3971 | 30.05
308.15 K, x1 = 0.4999 | 29.11
308.15 K, x1 = 0.6557 | 28.41
308.15 K, x1 = 0.7775 | 28.21
308.15 K, x1 = 0.9592 | 28.05

O [water]
[1]
Settings | surface tension liquid-gas [mN/m]
283.15 K | 74.47
298.15 K | 72.06
308.15 K | 70.41
